{"source": "patent US4420482A", "about": "“1,4-Bis(acetylsalicyloyloxy)piperizine derivatives” (priority 1980, dated 1983)", "key": {"[1]": {"assay": "Protective activity on lethal shock induced by inhaled histamine", "format": "in vivo, guinea-pig", "conditions": "for Protected animals: 20 guinea-pigs; for antihistaminic activity: inhaled histamine shock, guinea-pig", "text": "Table 4 points out the protective activity exerted by S.1528 versus the lethal shock induced in the guinea-pig by an inhaled histamine."}, "[2]": {"assay": "Analgesic activity, pressure-induced pain on paw inflamed by brewers' yeast (test of Randall and Selitto)", "format": "in vivo, Sprague Dawley rat", "conditions": "for Pain sensitivity threshold (g) of inflamed paw: mean of 1 and 2 hr, P < 0.01 vs controls; for analgesic activity: equimolecular doses, S.1528 vs acetylsalicylic acid", "procedure": "The analgesic activity of S.1528 was assessed on the sensitivity threshold of pain induced by a pressure exerted on a rat's paw inflamed by application of brewers' yeast (90 Sprague Dawley male rats with a mean bodyweight of 150 g)."}, "[3]": {"assay": "Therapeutic index (ratio between toxic dose and active dose)", "format": "in vivo", "conditions": "2600:158 for S.1528; 1000:100 for acetylsalicylic acid"}, "[4]": {"assay": "Antipyretic activity, hyperpyrexia induced by intramuscular brewers' yeast", "format": "in vivo, Sprague Dawley rat", "conditions": "for antipyretic activity: equimolecular doses, S.1528 vs acetylsalicylic acid; for mean temperature decrease: half dosage"}, "[5]": {"assay": "Paw carrageenin edema in the rat (anti-inflammatory activity)", "format": "in vivo, Sprague Dawley rat", "conditions": "for anti-inflammatory activity: equimolecular doses, S.1528 vs acetylsalicylic acid", "procedure": "The anti-inflammatory activity of S.1528 was assessed in the paw carrageenin edema (220 Sprague Dawley male rats with a mean bodyweight of 150 g). […] It should be noted that, in the overall context of the present patent application the term \"equimolecular doses\" of S.1528 indicates all those doses that contain acetylsalicylic residues in a quantity equivalent to that of acetylsalicylic acid used as reference drug."}, "[6]": {"assay": "Comparative oral acute toxicity in the mouse", "format": "in vivo", "text": "The new derivative of acetylsalicylic acid, ie S.1528, has been showing a quite mild toxicity associated with marked anti-inflammatory, antipyretic and analgesic activities as well as with an evident anti-histaminic activity. Moreover, unlike acetylsalicylic acid, the new compound appear to be entirely devoid of any gastric injuring effect."}, "[7]": {"assay": "Gastric ulcerogenic effect in the rat", "format": "in vivo, Sprague Dawley rat", "conditions": "for Incidence of gastric lesions (animals with lesions versus total treated): fasted 36 hours, killed 5 hours later"}}, "data": [{"smiles": "CC(=O)Oc1ccccc1C(=O)O", "note": "[Acetylsalicylic acid, acetylsalicylic acid, reference compound]", "values": [{"measurement": "Time of resistance", "setting": "[1]; 110 mg/kg/os", "result": "66 ± 6.3", "unit": "min"}, {"measurement": "Protected animals", "setting": "[1]; 110 mg/kg/os", "result": 0, "unit": "animals"}, {"measurement": "Time of resistance", "setting": "[1]; 221 mg/kg/os", "result": 54, "unit": "min"}, {"measurement": "Protected animals", "setting": "[1]; 221 mg/kg/os", "result": 0, "unit": "animals"}, {"measurement": "antihistaminic activity", "setting": "[1]", "result": "entirely devoid of any antihistaminic activity"}, {"measurement": "Threshold percent increase vs. controls", "setting": "[2]; 110 mg/kg/os", "result": 36.2, "unit": "%"}, {"measurement": "Pain sensitivity threshold (g) of inflamed paw", "setting": "[2]; 110 mg/kg/os", "result": "122.6 ± 7.1", "unit": "g"}, {"measurement": "Threshold percent increase vs. controls", "setting": "[2]; 221 mg/kg/os", "result": 71.2, "unit": "%"}, {"measurement": "Pain sensitivity threshold (g) of inflamed paw", "setting": "[2]; 221 mg/kg/os", "result": "154.1 ± 5.7", "unit": "g"}, {"measurement": "analgesic activity", "setting": "[2]", "result": "quantitatively similar activity"}, {"measurement": "therapeutic index (ratio between the toxic dose and the active dose)", "setting": "[3]", "result": 10}, {"measurement": "antipyretic activity", "setting": "[4]", "result": "quite the same antipyretic activity"}, {"measurement": "mean temperature decrease", "setting": "[4]; 75 mg/kg/os", "result": 0.4, "unit": "degrees centigrades"}, {"measurement": "Comparative edema decrease in the various groups of untreated control animals", "setting": "[5]; 55 mg/kg/os, P ns", "result": -28}, {"measurement": "Comparative edema decrease in the various groups of untreated control animals", "setting": "[5]; 110 mg/kg/os, P <0.01", "result": -44}, {"measurement": "Comparative edema decrease in the various groups of untreated control animals", "setting": "[5]; 221 mg/kg/os, P <0.01", "result": -79}, {"measurement": "anti-inflammatory activity", "setting": "[5]", "result": "quantitatively superimposable anti-inflammatory activity"}, {"measurement": "Mortality observed (7 days)", "setting": "[6]; 250 mg/kg/os", "result": 0}, {"measurement": "Mortality observed (7 days)", "setting": "[6]; 500 mg/kg/os", "result": 0}, {"measurement": "Mortality observed (7 days)", "setting": "[6]; 750 mg/kg/os", "result": "4/20"}, {"measurement": "Mortality observed (7 days)", "setting": "[6]; 1000 mg/kg/os", "result": "10/20"}, {"measurement": "Mortality observed (7 days)", "setting": "[6]; 1250 mg/kg/os", "result": "14/20"}, {"measurement": "Mortality observed (7 days)", "setting": "[6]; 1500 mg/kg/os", "result": "20/20"}, {"measurement": "Mortality observed (7 days)", "setting": "[6]; 1750 mg/kg/os", "result": "10/10"}, {"measurement": "oral LD 50", "setting": "[6]; oral, 10080 min", "result": 1000, "unit": "mg/kg"}]}, {"smiles": "CC(=O)Oc1ccccc1C(=O)OCCN1CCN(CCOC(=O)c2ccccc2OC(C)=O)CC1", "note": "[S.1528, 1,4-BIS-[2-(ACETYLSALICYLOYLOXY)ETHYL] PIPERAZINE]", "values": [{"measurement": "Percent Protection", "setting": "[1]; 158 mg/kg/os", "result": 60, "unit": "%"}, {"measurement": "Time of resistance", "setting": "[1]; 158 mg/kg/os", "result": 523, "unit": "min"}, {"measurement": "Protected animals", "setting": "[1]; 158 mg/kg/os", "result": 12, "unit": "animals"}, {"measurement": "Percent Protection", "setting": "[1]; 317 mg/kg/os", "result": 100, "unit": "%"}, {"measurement": "Time of resistance", "setting": "[1]; 317 mg/kg/os", "result": "> 720", "unit": "min"}, {"measurement": "Protected animals", "setting": "[1]; 317 mg/kg/os", "result": 20, "unit": "animals"}, {"measurement": "ED50", "setting": "[1]; Cavia porcellus, read-out: dose that protects 50 percent of the guinea-pigs from the onset of a shock due to histamine", "result": 158, "unit": "mg/kg"}, {"measurement": "antihistaminic activity", "setting": "[1]", "result": "evident antihistaminic activity"}, {"measurement": "Threshold percent increase vs. controls", "setting": "[2]; 158 mg/kg/os", "result": 41.3, "unit": "%"}, {"measurement": "Pain sensitivity threshold (g) of inflamed paw", "setting": "[2]; 158 mg/kg/os", "result": "127.2 ± 6.3", "unit": "g"}, {"measurement": "Threshold percent increase vs. controls", "setting": "[2]; 317 mg/kg/os", "result": 69.1, "unit": "%"}, {"measurement": "Pain sensitivity threshold (g) of inflamed paw", "setting": "[2]; 317 mg/kg/os", "result": "152.2 ± 8.4", "unit": "g"}, {"measurement": "analgesic activity", "setting": "[2]", "result": "quantitatively similar activity"}, {"measurement": "Mean number of gastric ulcerations (mm)", "setting": "[7]; 158 mg/kg, os", "result": 0, "unit": "mm"}, {"measurement": "Incidence of gastric lesions (animals with lesions versus total treated)", "setting": "[7]; 158 mg/kg, os", "result": "0/20"}, {"measurement": "Mean number of gastric ulcerations (mm)", "setting": "[7]; 317 mg/kg, i.p.", "result": 0, "unit": "mm"}, {"measurement": "Incidence of gastric lesions (animals with lesions versus total treated)", "setting": "[7]; 317 mg/kg, i.p.", "result": "0/20"}, {"measurement": "Mean number of gastric ulcerations (mm)", "setting": "[7]; 317 mg/kg, os", "result": 0, "unit": "mm"}, {"measurement": "Incidence of gastric lesions (animals with lesions versus total treated)", "setting": "[7]; 317 mg/kg, os", "result": "0/20"}, {"measurement": "gastric injuring effect", "setting": "[7]; equimolecular doses, rat", "result": "no gastric injuring effect"}, {"measurement": "therapeutic index (ratio between the toxic dose and the active dose)", "setting": "[3]", "result": 16.45}, {"measurement": "antipyretic activity", "setting": "[4]", "result": "quite the same antipyretic activity"}, {"measurement": "mean temperature decrease", "setting": "[4]; 118.5 mg/kg/os", "result": 0.4, "unit": "degrees centigrades"}, {"measurement": "Comparative edema decrease in the various groups of untreated control animals", "setting": "[5]; 79 mg/kg/os, P ns", "result": -23}, {"measurement": "Comparative edema decrease in the various groups of untreated control animals", "setting": "[5]; 158 mg/kg/os, P <0.01", "result": -52}, {"measurement": "Comparative edema decrease in the various groups of untreated control animals", "setting": "[5]; 317 mg/kg/os, P <0.01", "result": -83}, {"measurement": "anti-inflammatory activity", "setting": "[5]", "result": "quantitatively superimposable anti-inflammatory activity"}, {"measurement": "Mortality observed (7 days)", "setting": "[6]; 750 mg/kg/os", "result": "0/10"}, {"measurement": "Mortality observed (7 days)", "setting": "[6]; 1000 mg/kg/os", "result": "0/10"}, {"measurement": "Mortality observed (7 days)", "setting": "[6]; 1500 mg/kg/os", "result": "0/20"}, {"measurement": "Mortality observed (7 days)", "setting": "[6]; 1750 mg/kg/os", "result": "0/20"}, {"measurement": "Mortality observed (7 days)", "setting": "[6]; 2000 mg/kg/os", "result": "4/20"}, {"measurement": "Mortality observed (7 days)", "setting": "[6]; 2250 mg/kg/os", "result": "5/20"}, {"measurement": "Mortality observed (7 days)", "setting": "[6]; 2500 mg/kg/os", "result": "8/20"}, {"measurement": "Mortality observed (7 days)", "setting": "[6]; 2750 mg/kg/os", "result": "12/20"}, {"measurement": "Mortality observed (7 days)", "setting": "[6]; 3000 mg/kg/os", "result": "16/20"}, {"measurement": "LD50 at 168 h", "setting": "[6]; in vivo, oral, read-out: oral LD 50", "result": "~2600", "unit": "mg/kg"}]}]}
